Values of other authors, collected in patent publication US20220354953A1, “PHOTODYNAMIC THERAPY COMPOSITIONS AND METHODS OF TREATMENT THEREIN” (Pinnacle Biologics, Inc., priority 2021, published 2022).

## porfimer sodium
  time stable when reconstituted with saline: 24 h
